# Experimental data taken from patent US8192962B2, “Processes for detecting toxic substances” (Daikin Industries, Ltd., priority 2001, dated 2012).
# System: Energy system protein genes
# Assay: DNA chip mRNA expression in yeast, energy system protein genes (Table 4)
# Type: cell-based, Saccharomyces cerevisiae S288C
# Method in brief: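 Cells were grown at 25° C. in YPD, treated at logarithmic phase for 2 h with a chemical at a concentration inhibiting growth but not causing death, and compared with untreated cultures. Labeled cDNA was hybridized to a DNA chip carrying all yeast genes, and the expression ratio was taken from scanner fluorescence.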
structure (smiles),measurement,setting,value
"S=C([S-])NCCNC(=S)[S-].[Zn+2] [(11), zinc N,N′-ethylenebis(dithiocarbamate)]",The level of expressed mRNA in the presence of chemical substance/The level of expressed mRNA in the absence of chemical substance,"yeast gene YJL166W, cells incubated two hours with the chemical substance",1.4
same,The level of expressed mRNA in the presence of chemical substance/The level of expressed mRNA in the absence of chemical substance,"yeast gene YJL216C, cells incubated two hours with the chemical substance",1.1
same,The level of expressed mRNA in the presence of chemical substance/The level of expressed mRNA in the absence of chemical substance,yeast gene YJR009C,1.1
same,The level of expressed mRNA in the presence of chemical substance/The level of expressed mRNA in the absence of chemical substance,yeast gene YJR048W,1.0
same,The level of expressed mRNA in the presence of chemical substance/The level of expressed mRNA in the absence of chemical substance,"yeast gene YJR121W, cells incubated two hours with the chemical substance",0.9
same,The level of expressed mRNA in the presence of chemical substance/The level of expressed mRNA in the absence of chemical substance,yeast gene YJR155W,15.4
same,The level of expressed mRNA in the presence of chemical substance/The level of expressed mRNA in the absence of chemical substance,"yeast gene YKL016C, cells incubated two hours with the chemical substance",1.3
same,The level of expressed mRNA in the presence of chemical substance/The level of expressed mRNA in the absence of chemical substance,"yeast gene YKL060C, cells incubated two hours with the chemical substance",2.1
same,The level of expressed mRNA in the presence of chemical substance/The level of expressed mRNA in the absence of chemical substance,"yeast gene YKL141W, cells incubated two hours with the chemical substance",1.2
same,The level of expressed mRNA in the presence of chemical substance/The level of expressed mRNA in the absence of chemical substance,"yeast gene YKL148C, cells incubated two hours with the chemical substance",1.5
same,The level of expressed mRNA in the presence of chemical substance/The level of expressed mRNA in the absence of chemical substance,"yeast gene YKR009C, cells incubated two hours with the chemical substance",1.2
same,The level of expressed mRNA in the presence of chemical substance/The level of expressed mRNA in the absence of chemical substance,"yeast gene YKR058W, cells incubated two hours with the chemical substance, 25° C., YPD medium",1.5
same,The level of expressed mRNA in the presence of chemical substance/The level of expressed mRNA in the absence of chemical substance,yeast gene YKR097W,0.8
same,The level of expressed mRNA in the presence of chemical substance/The level of expressed mRNA in the absence of chemical substance,"yeast gene YLL041C, cells incubated two hours with the chemical substance",1.3
same,The level of expressed mRNA in the presence of chemical substance/The level of expressed mRNA in the absence of chemical substance,"yeast gene YLR038C, cells incubated two hours with the chemical substance",1.4
same,The level of expressed mRNA in the presence of chemical substance/The level of expressed mRNA in the absence of chemical substance,"yeast gene YLR044C, cells incubated two hours with the chemical substance",1.1
same,The level of expressed mRNA in the presence of chemical substance/The level of expressed mRNA in the absence of chemical substance,"yeast gene YLR134W, cells incubated two hours with the chemical substance",1.1
same,The level of expressed mRNA in the presence of chemical substance/The level of expressed mRNA in the absence of chemical substance,"yeast gene YLR258W, cells incubated two hours with the chemical substance",1.2
same,The level of expressed mRNA in the presence of chemical substance/The level of expressed mRNA in the absence of chemical substance,"yeast gene YLR284C, cells incubated two hours with the chemical substance",1.5
same,The level of expressed mRNA in the presence of chemical substance/The level of expressed mRNA in the absence of chemical substance,"yeast gene YLR295C, cells incubated two hours with the chemical substance, 25° C., YPD medium",1.3
same,The level of expressed mRNA in the presence of chemical substance/The level of expressed mRNA in the absence of chemical substance,"yeast gene YLR304C, cells incubated two hours with the chemical substance",1.6
same,The level of expressed mRNA in the presence of chemical substance/The level of expressed mRNA in the absence of chemical substance,yeast gene YLR345W,2.5
same,The level of expressed mRNA in the presence of chemical substance/The level of expressed mRNA in the absence of chemical substance,"yeast gene YLR354C, cells incubated two hours with the chemical substance",1.7
same,The level of expressed mRNA in the presence of chemical substance/The level of expressed mRNA in the absence of chemical substance,"yeast gene YLR377C, cells incubated two hours with the chemical substance",0.6
same,The level of expressed mRNA in the presence of chemical substance/The level of expressed mRNA in the absence of chemical substance,"yeast gene YLR395C, cells incubated two hours with the chemical substance",1.5
same,The level of expressed mRNA in the presence of chemical substance/The level of expressed mRNA in the absence of chemical substance,yeast gene YML087C,1.6
same,The level of expressed mRNA in the presence of chemical substance/The level of expressed mRNA in the absence of chemical substance,"yeast gene YML120C, cells incubated two hours with the chemical substance",1.3
same,The level of expressed mRNA in the presence of chemical substance/The level of expressed mRNA in the absence of chemical substance,"yeast gene YML129C, cells incubated two hours with the chemical substance",1.2
same,The level of expressed mRNA in the presence of chemical substance/The level of expressed mRNA in the absence of chemical substance,"yeast gene YMR073C, cells incubated two hours with the chemical substance",0.9
same,The level of expressed mRNA in the presence of chemical substance/The level of expressed mRNA in the absence of chemical substance,yeast gene YMR118C,0.7
same,The level of expressed mRNA in the presence of chemical substance/The level of expressed mRNA in the absence of chemical substance,"yeast gene YMR205C, cells incubated two hours with the chemical substance",1.0
same,The level of expressed mRNA in the presence of chemical substance/The level of expressed mRNA in the absence of chemical substance,"yeast gene YMR261C, cells incubated two hours with the chemical substance",0.8
same,The level of expressed mRNA in the presence of chemical substance/The level of expressed mRNA in the absence of chemical substance,"yeast gene YMR267W, cells incubated two hours with the chemical substance, 25° C., YPD medium",1.0
same,The level of expressed mRNA in the presence of chemical substance/The level of expressed mRNA in the absence of chemical substance,"yeast gene YMR323W, cells incubated two hours with the chemical substance",2.5
same,The level of expressed mRNA in the presence of chemical substance/The level of expressed mRNA in the absence of chemical substance,yeast gene YNL071W,1.6
same,The level of expressed mRNA in the presence of chemical substance/The level of expressed mRNA in the absence of chemical substance,"yeast gene YNL202W, cells incubated two hours with the chemical substance",1.2
same,The level of expressed mRNA in the presence of chemical substance/The level of expressed mRNA in the absence of chemical substance,yeast gene YNL241C,3.0
same,The level of expressed mRNA in the presence of chemical substance/The level of expressed mRNA in the absence of chemical substance,yeast gene YNL331C,21.8
same,The level of expressed mRNA in the presence of chemical substance/The level of expressed mRNA in the absence of chemical substance,"yeast gene YOL086C, cells incubated two hours with the chemical substance",2.6
same,The level of expressed mRNA in the presence of chemical substance/The level of expressed mRNA in the absence of chemical substance,yeast gene YOL165C,17.6
same,The level of expressed mRNA in the presence of chemical substance/The level of expressed mRNA in the absence of chemical substance,"yeast gene YOR142W, cells incubated two hours with the chemical substance",1.5
same,The level of expressed mRNA in the presence of chemical substance/The level of expressed mRNA in the absence of chemical substance,"yeast gene YOR178C, cells incubated two hours with the chemical substance",4.1
same,The level of expressed mRNA in the presence of chemical substance/The level of expressed mRNA in the absence of chemical substance,"yeast gene YOR388C, cells incubated two hours with the chemical substance",1.3
same,The level of expressed mRNA in the presence of chemical substance/The level of expressed mRNA in the absence of chemical substance,"yeast gene YPL031C, cells incubated two hours with the chemical substance",1.4
same,The level of expressed mRNA in the presence of chemical substance/The level of expressed mRNA in the absence of chemical substance,"yeast gene YPL061W, cells incubated two hours with the chemical substance",1.1
same,The level of expressed mRNA in the presence of chemical substance/The level of expressed mRNA in the absence of chemical substance,yeast gene YPL088W,1.1
same,The level of expressed mRNA in the presence of chemical substance/The level of expressed mRNA in the absence of chemical substance,yeast gene YPL171C,37.0
same,The level of expressed mRNA in the presence of chemical substance/The level of expressed mRNA in the absence of chemical substance,yeast gene YPL240C,1.0
same,The level of expressed mRNA in the presence of chemical substance/The level of expressed mRNA in the absence of chemical substance,"yeast gene YPL262W, cells incubated two hours with the chemical substance",1.4
same,The level of expressed mRNA in the presence of chemical substance/The level of expressed mRNA in the absence of chemical substance,"yeast gene YPL275W, cells incubated two hours with the chemical substance",0.9
same,The level of expressed mRNA in the presence of chemical substance/The level of expressed mRNA in the absence of chemical substance,"yeast gene YPL276W, cells incubated two hours with the chemical substance",−0.4
same,The level of expressed mRNA in the presence of chemical substance/The level of expressed mRNA in the absence of chemical substance,"yeast gene YPR048W, cells incubated two hours with the chemical substance",1.0
same,The level of expressed mRNA in the presence of chemical substance/The level of expressed mRNA in the absence of chemical substance,"yeast gene YPR184W, cells incubated two hours with the chemical substance",3.6
